Counter-ions that a name gives are not always drawn. Like-named read-outs stand apart in the source and are kept apart here.
Key:
[1] = target: human CDK4 and genetically truncated (1-264) cyclin D3 (Homo sapiens, UniProt P11802); assay: Inhibition of CDK4/Cyclin D Retinoblastoma Kinase Activity; type: biochemical; details: for Ki: apparent Ki, CDK4/truncated cyclin D3, Rb fragment substrate, 25 μM ATP
In short: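 The enzyme complex (5 nM), expressed in co-infected insect cells, was incubated with recombinant Rb fragment, 25 μM radiolabelled ATP and 2% DMSO at 30 °C. Reactions were stopped with EDTA after 20 minutes, or 60 minutes for tight-binding inhibitors. Apparent Ki values came from competitive inhibition fits.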

CDK2/Cyclin A = CDK2/Cyclin A (Homo sapiens, UniProt P24941); assay: Inhibition of CDK2/Cyclin A Retinoblastoma Kinase Activity; type: biochemical; details: for Ki: apparent Ki, CDK2/proteolyzed cyclin A, Rb fragment substrate, 25 μM ATP
In short: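 CDK2 (10 or 19 nM), insect-cell expressed, gel-filtration purified with truncated cyclin A; Rb fragment substrate; 25 μM ATP; 10 mM HEPES pH 7.4, 10 mM MgCl2; 30° C, 60 or 75 min; EDTA stop; phosphocellulose/nitrocellulose capture, phosphorimager. % inhibition vs DMSO control, no-enzyme background subtracted.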

HCT-116 cell line = assay: Inhibition of cell growth, tetrazolium salt (MTT) assay; type: cell-based; details: for IC50: Homo sapiens, HCT-116, 120 h, MTT, three to five days, read-out: HCT-116 IC50; for HCT-116 % Inhibition at 0.25 μM: 0.25 μM compound
In short: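 MTT colorimetric viability: three-to-five-day compound exposure in 0.5% (v/v) DMSO at 37° C, MTT 0.2 mg/mL for the last 4 h, A540 compared with vehicle-treated cells.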

[2] = 0.1 μM compound, HCT-116, Table 4

Chain of human CDK4 and genetically truncated (1-264) cyclin D3 (P11802 whole entry, the tested form may be a part): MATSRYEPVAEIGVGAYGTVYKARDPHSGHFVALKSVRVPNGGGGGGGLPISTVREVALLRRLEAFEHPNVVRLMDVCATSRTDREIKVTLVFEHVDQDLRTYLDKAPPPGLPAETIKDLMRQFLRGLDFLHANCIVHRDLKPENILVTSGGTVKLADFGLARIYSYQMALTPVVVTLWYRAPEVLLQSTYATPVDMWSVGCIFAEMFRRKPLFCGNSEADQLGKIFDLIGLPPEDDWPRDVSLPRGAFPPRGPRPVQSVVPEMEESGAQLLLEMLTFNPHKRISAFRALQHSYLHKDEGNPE
Chain of human CDK4 and genetically truncated (1-264) cyclin D3 (P30281 1-264 partner): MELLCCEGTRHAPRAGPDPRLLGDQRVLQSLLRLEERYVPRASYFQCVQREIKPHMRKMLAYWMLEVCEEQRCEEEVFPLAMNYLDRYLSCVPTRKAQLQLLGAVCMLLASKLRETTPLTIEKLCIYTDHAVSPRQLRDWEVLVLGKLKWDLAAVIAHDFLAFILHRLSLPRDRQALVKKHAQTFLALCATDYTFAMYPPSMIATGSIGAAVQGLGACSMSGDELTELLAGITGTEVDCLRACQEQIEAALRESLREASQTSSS

Row | Compound | Ki [1] | Ki (CDK2/Cyclin A) | IC50 (HCT-116 cell line; first HCT-116 column (c4)) | IC50 (HCT-116 cell line; second HCT-116 column (c5)) | CDK4 % Inhibition at 0.03 μM ([1]; at 0.03 μM) | CDK2 % Inhibition at 0.03 μM (CDK2/Cyclin A; at 0.03 μM) | HCT-116 % Inhibition at 0.1 μM (HCT-116 cell line; HCT-116 cells, at 0.1 μM) | HCT-116 5 Inhibition at 0.25 μM (HCT-116 cell line; HCT-116 cells) | further results
1 | CC1(C)CN=C(c2ccc(S(=O)(=O)N3CCC(Nc4nc(N)c(C(=O)c5c(F)cccc5F)s4)CC3)cc2)N1 [Example J2, 1-(4-Amino-2-{1-[4-(5,5-dimethyl-4,5-dihydro-1H-imidazol-2-yl)-benzenesulfonyl]-piperidin-4-ylamino}-thiazol-5-yl)-1-(2,6-difluoro-phenyl)-methanone] | 0.18 nM | < 1 nM | 500 nM | 1800 nM |  |  |  |  | 
2 | N#Cc1ccc(C(=O)N2CCC(Nc3nc(N)c(C(=O)c4c(F)cccc4F)s3)CC2)cc1 [Example Q60] |  |  |  |  |  |  |  |  | CDK4 % Inhibition at 0.03 μM ([1]; 0.03 μM compound, Table 4): 67%; CDK2 % Inhibition at 0.03 μM (CDK2/Cyclin A; 0.03 μM compound, Table 4): 37%; HCT-116 % Inhibition at 0.1 μM (HCT-116 cell line; [2]): 0%; HCT-116 % Inhibition at 0.25 μM (HCT-116 cell line; HCT-116, Table 4): 37%
3 | Nc1nc(NC2CCN(S(=O)(=O)c3cccnc3)CC2)sc1C(=O)c1c(F)cccc1F [Example F23, 1-{4-Amino-2-[1-(pyridine-3-sulfonyl)-piperidin-4-ylamino]-thiazol-5-yl}-1-(2,6-difluoro-phenyl)-methanone] | 4.8 nM | 2.8 nM | 130 nM | 300 nM |  |  |  |  | 
4 | Cc1cccc(S(=O)(=O)N2CCC(Nc3nc(N)c(C(=O)c4c(F)cccc4F)s3)CC2)c1 [Example P37] |  |  |  |  |  |  |  |  | CDK4 % Inhibition at 0.03 μM ([1]; 0.03 μM compound, Table 3): 65%; CDK2 % Inhibition at 0.03 μM (CDK2/Cyclin A; 0.03 μM compound, Table 3): 58%; HCT-116 % Inhibition at 0.1 μM (HCT-116 cell line; 0.1 μM compound, HCT-116, Table 3): 0%; HCT-116 % Inhibition at 0.25 μM (HCT-116 cell line; HCT-116, Table 3): 27%
5 | Nc1nc(NC2CCN(C(=O)Oc3ccccc3)CC2)sc1C(=O)c1c(F)cccc1F [Example Q4] |  |  |  |  |  |  |  |  | CDK4 % Inhibition at 0.03 μM ([1]; 0.03 μM compound, Table 4): 78%; CDK2 % Inhibition at 0.03 μM (CDK2/Cyclin A; 0.03 μM compound, Table 4): 59%; HCT-116 % Inhibition at 0.1 μM (HCT-116 cell line; [2]): 0%; HCT-116 % Inhibition at 0.25 μM (HCT-116 cell line; HCT-116, Table 4): 41%
6 | COc1ccc(C=CC(=O)N2CCC(Nc3nc(N)c(C(=O)c4c(F)cccc4F)s3)CC2)c(Cl)c1OC [Example R61] |  |  |  |  | 59% | 63% | 0% | 37 | 
7 | Nc1nc(NC2CCN(C(=O)CSc3ccccc3)CC2)sc1C(=O)c1c(F)cccc1F [Example R32] |  |  |  |  | 65% | 38% | 0% | 48 | 
8 | Cc1ccc(S(=O)(=O)CC(=O)N2CCC(Nc3nc(N)c(C(=O)c4c(F)cccc4F)s3)CC2)cc1 [Example R65] |  |  |  |  | 24% | 9% | 3% | 31 | 
9 | CCOc1ccccc1C(=O)N1CCC(Nc2nc(N)c(C(=O)c3c(F)cccc3F)s2)CC1 [Example R119] |  |  |  |  | 31% | 27% | 3% | 53 | 
10 | Nc1nc(NC2CCN(C(=O)Nc3ccc([N+](=O)[O-])cc3)CC2)sc1C(=O)c1c(F)cccc1F [Example O36] |  |  |  |  |  |  |  |  | CDK4 % Inhibition at 0.03 μM ([1]; 0.03 μM compound, Table 2): 12%; CDK2 % Inhibition At 0.03 μM (CDK2/Cyclin A; 0.03 μM compound, Table 2): 23%; HCT-116 % Inhibition at 0.25 μM (HCT-116 cell line; HCT-116, Table 2): 28%
11 | Nc1nc(NC2CCN(S(=O)(=O)CCN3CCCC3c3ccccc3)CC2)sc1C(=O)c1c(F)cccc1F (stereo not drawn) [Example K29, Trifluoroacetic Acid Salt] | 1.6 nM | 3.7 nM | 160 nM | 510 nM |  |  |  |  | 
12 | CN1CCC(Oc2ccc(S(=O)(=O)N3CCC(Nc4nc(N)c(C(=O)c5c(F)cccc5F)s4)CC3)cn2)CC1 [Example H14, 1-(4-Amino-2-{1-[6-(1-methyl-piperidin-4-yloxy)-pyridine-3-sulfonyl]-piperidin-4-ylamino}-thiazol-5-yl)-1-(2,6-difluoro-phenyl)-methanone Hydrochloride] | 0.34 nM | 0.74 nM | 40 nM | 400 nM |  |  |  |  | 
13 | CN(C)CCc1ccc(S(=O)(=O)N2CCC(Nc3nc(N)c(C(=O)c4c(F)cccc4F)s3)CC2)cn1 [Example N11, (4-Amino-2-{1-[6-(2-dimethylamino-ethyl)-pyridine-3-sulfonyl]-piperidin-4-ylamino}-thiazol-5-yl)-(2,6-difluoro-phenyl)-methanone TFA Salt.] | 0.39 nM | 1.6 nM | 140 nM | 1600 nM |  |  |  |  | 

Source: US20050101595A1, “N-containing cycloalkyl-substituted amino-thiazole derivatives and pharmaceutical compositions for inhibiting cell proliferation and methods for their use” (PFIZER INC., priority 2003, published 2005)
